Data on 5 compounds can be found in ChEMBL document CHEMBL1143545, “A proof of the specificity of kanamycin-ribosomal RNA interaction with designed synthetic analogs and the antibacterial activity” (2005).

Assay type in all cases: functional
In one assay the test system is Micrococcus luteus. The assay can be described thus: Minimal inhibitory concentration against Micrococcus luteus FDA16 was determined by 2-fold agar dilution streak method at 37: C for 18 h.
The test system of assay [1] is Escherichia coli. The assay can be described thus: Minimal inhibitory concentration against Escherichia coli K-12 ML1410 was determined by 2-fold agar dilution streak method at 37: C for 18 h.
Assay [2] concerns Pseudomonas aeruginosa. In words: Minimal inhibitory concentration against Pseudomonas aeruginosa 21-75 was determined by 2-fold agar dilution streak method at 37: C for 18 h.
Assay [3] relates to Pseudomonas aeruginosa. The assay can be described thus: Minimal inhibitory concentration against Pseudomonas aeruginosa GN315 was determined by 2-fold agar dilution streak method at 37: C for 18 h.
For a further assay, the system named is Klebsiella pneumoniae. The assay can be described thus: Minimal inhibitory concentration against Klebsiella pneumoniae PCI 602 was determined by 2-fold agar dilution streak method at 37: C for 18 h.
The subject of another assay is Staphylococcus aureus. In words: Minimal inhibitory concentration against Staphylococcus aureus FDA209P was determined by 2-fold agar dilution streak method at 37: C for 18 h.
The test system of a further assay is Bacillus cereus. In words: Minimal inhibitory concentration against Bacillus cereus ATCC 10702 was determined by 2-fold agar dilution streak method at 37: C for 18 h. As to conditions: ATCC 10702, 18 h.
The test system of assay [4] is Pseudomonas aeruginosa. The assay can be described thus: Minimal inhibitory concentration against Pseudomonas aeruginosa A3 was determined by 2-fold agar dilution streak method at 37: C for 18 h.
Assay [5] has as its system Escherichia coli. In words: Minimal inhibitory concentration against Escherichia coli JR66/W677 was determined by 2-fold agar dilution streak method at 37: C for 18 h.
Assay [6] deals with Mycolicibacterium smegmatis. In words: Minimal inhibitory concentration against Mycobacterium smegmatis ATCC607 was determined by 2-fold agar dilution streak method at 37C for 42h.
Another assay deals with Serratia marcescens. The assay can be described thus: Minimal inhibitory concentration against Serratia marcescens was determined by 2-fold agar dilution streak method at 37: C for 18 h.
Assay [7] has as its system Escherichia coli. The assay can be described thus: Minimal inhibitory concentration against Escherichia coli K-12 was determined by 2-fold agar dilution streak method at 37: C for 18 h. The following applies: K-12, 18 h.
A further assay deals with Bacillus subtilis. In words: Minimal inhibitory concentration against Bacillus subtilis PCI219 was determined by 2-fold agar dilution streak method at 37: C for 18 h.

Values after ≈ are worked out from the molar mass of the structure shown.

For the compound `NCC1CCC(N)C(OC2C(N)CC(N=C(N)N)C(OC3OC(CO)C(O)C(N)C3O)C2O)O1` (stereo not given), the MIC with Micrococcus luteus was over 100 µg/mL; against Escherichia coli [1], over 100 µg/mL; against Pseudomonas aeruginosa [2], over 100 µg/mL; in the assay with Pseudomonas aeruginosa [3], over 100 µg/mL; against Klebsiella pneumoniae, over 100 µg/mL; with Staphylococcus aureus, 0.78 µg/mL (≈ 1.58 µM). The MIC with Bacillus cereus is 25 µg/mL (≈ 50.7 µM); against Pseudomonas aeruginosa [4], 25 µg/mL (≈ 50.7 µM); in the assay with Escherichia coli [5], over 100 µg/mL; in assay [6], 3.13 µg/mL (≈ 6.34 µM); against Serratia marcescens, over 100 µg/mL; with Escherichia coli [7], 50 µg/mL (≈ 101 µM). Also, 0.78 µg/mL (≈ 1.58 µM) was the least that counted as inhibitory in the assay with Bacillus subtilis (MIC).

Take `NCCCC(=O)NC1CC(N)C(OC2OC(CN)CCC2N)C(O)C1OC1OC(CO)C(O)C(N)C1O` (stereo not given): the MIC in the assay with Micrococcus luteus was 100 µg/mL (≈ 186 µM); in the assay with Escherichia coli [1], 25 µg/mL (≈ 46.6 µM); against Pseudomonas aeruginosa [2], over 100 µg/mL; in the assay on Pseudomonas aeruginosa [3] it was over 100 µg/mL; with Klebsiella pneumoniae, 12.5 µg/mL (≈ 23.3 µM); with Staphylococcus aureus, 1.56 µg/mL (≈ 2.91 µM). The MIC with Bacillus cereus is 6.25 µg/mL (≈ 11.6 µM); in the assay on Pseudomonas aeruginosa [4], 3.13 µg/mL (≈ 5.83 µM); in the assay on Escherichia coli [5], 25 µg/mL (≈ 46.6 µM); in assay [6], 6.25 µg/mL (≈ 11.6 µM); with Serratia marcescens, over 100 µg/mL; in the assay on Escherichia coli [7] it was 12.5 µg/mL (≈ 23.3 µM). Besides, in the assay on Bacillus subtilis, the MIC was 0.78 µg/mL (≈ 1.45 µM).

Take `NCC1CCC(N)C(OC2C(N)CC(NC(=O)CCCN=C(N)N)C(OC3OC(CO)C(O)C(N)C3O)C2O)O1` (stereo not given): the MIC in the assay with Micrococcus luteus was 100 µg/mL (≈ 173 µM); in the assay with Escherichia coli [1], 25 µg/mL (≈ 43.2 µM); against Pseudomonas aeruginosa [2], over 100 µg/mL; with Pseudomonas aeruginosa [3], over 100 µg/mL; in the assay with Klebsiella pneumoniae, 12.5 µg/mL (≈ 21.6 µM); against Staphylococcus aureus, 1.56 µg/mL (≈ 2.7 µM). Further, the MIC was 6.25 µg/mL (≈ 10.8 µM) against Bacillus cereus; 6.25 µg/mL (≈ 10.8 µM) with Pseudomonas aeruginosa [4]; 50 µg/mL (≈ 86.4 µM) with Escherichia coli [5]; 6.25 µg/mL (≈ 10.8 µM) in [6]; over 100 µg/mL in the assay with Serratia marcescens; 12.5 µg/mL (≈ 21.6 µM) against Escherichia coli [7]. In the assay on Bacillus subtilis, this compound came in with an MIC of 1.56 µg/mL (≈ 2.7 µM).

`NCC1CCC(N)C(OC2C(N)CC(NC(=O)[C@H](O)CCN=C(N)N)C(OC3OC(CO)C(O)C(N)C3O)C2O)O1` (stereo not given in full): the minimal inhibitory concentration (MIC) in the assay on Micrococcus luteus is 12.5 µg/mL (≈ 21 µM); against Escherichia coli [1] it was 1.56 µg/mL (≈ 2.62 µM); against Pseudomonas aeruginosa [2] it was 12.5 µg/mL (≈ 21 µM); against Pseudomonas aeruginosa [3] it was over 100 µg/mL; against Klebsiella pneumoniae, 1.56 µg/mL (≈ 2.62 µM); with Staphylococcus aureus it was 0.2 µg/mL (≈ 0.336 µM). Moreover, the MIC with Bacillus cereus was determined as 0.78 µg/mL (≈ 1.31 µM); with Pseudomonas aeruginosa [4], 0.39 µg/mL (≈ 0.656 µM); in the assay on Escherichia coli [5], 3.13 µg/mL (≈ 5.26 µM); in [6] it was 0.39 µg/mL (≈ 0.656 µM); against Serratia marcescens it was 25 µg/mL (≈ 42 µM); against Escherichia coli [7] it was 0.78 µg/mL (≈ 1.31 µM). The compound also registered an MIC in the assay with Bacillus subtilis of 0.1 µg/mL (≈ 0.168 µM).

With `NCC1CCC(N)C(OC2C(N)CC(NC(=O)[C@H](N)CCCN=C(N)N)C(OC3OC(CO)C(O)C(N)C3O)C2O)O1` (stereo not given in full), the MIC against Micrococcus luteus is over 100 µg/mL; in the assay with Escherichia coli [1] it was over 100 µg/mL; against Pseudomonas aeruginosa [2], over 100 µg/mL; against Pseudomonas aeruginosa [3] it was over 100 µg/mL; in the assay on Klebsiella pneumoniae, 100 µg/mL (≈ 165 µM); in the assay on Staphylococcus aureus, 6.25 µg/mL (≈ 10.3 µM). Besides, the MIC is 25 µg/mL (≈ 41.1 µM) with Bacillus cereus; 100 µg/mL (≈ 165 µM) against Pseudomonas aeruginosa [4]; over 100 µg/mL against Escherichia coli [5]; 25 µg/mL (≈ 41.1 µM) in assay [6]; over 100 µg/mL in the assay with Serratia marcescens; 100 µg/mL (≈ 165 µM) in the assay with Escherichia coli [7]. For the same compound, it took 3.13 µg/mL (≈ 5.15 µM) to inhibit growth against Bacillus subtilis (MIC).
